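Dose response: 5 concentrations. Exposure: 48 h. Format: 96-well plates. Endpoint: linear interpolation; highest concentration if not reached. TGI is the concentration that stops growth completely.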
Assays:
Experiment in all cases: NCI anticancer screen, dose series, 48 h
786-0 renal = system: 786-0 renal
A498 renal = system: A498 renal
A549 NSCLC = system: A549 NSCLC
ACHN renal = system: ACHN renal
BT-549 breast = system: BT-549 breast
CAKI-1 renal = system: CAKI-1 renal
CCRF-CEM leukemia = system: CCRF-CEM leukemia
COLO 205 colon = system: COLO 205 colon
DU-145 prostate = system: DU-145 prostate
EKVX NSCLC = system: EKVX NSCLC
HCT-116 colon = system: HCT-116 colon
HCT-15 colon = system: HCT-15 colon
HL-60(TB) leukemia = system: HL-60(TB) leukemia
HOP-62 NSCLC = system: HOP-62 NSCLC
HOP-92 NSCLC = system: HOP-92 NSCLC
HS 578T breast = system: HS 578T breast
HT29 colon = system: HT29 colon
IGROV1 ovarian = system: IGROV1 ovarian
K-562 leukemia = system: K-562 leukemia
KM12 colon = system: KM12 colon
LOX IMVI melanoma = system: LOX IMVI melanoma
M14 melanoma = system: M14 melanoma
MALME-3M melanoma = system: MALME-3M melanoma
MCF7 breast = system: MCF7 breast
MDA-MB-231 breast = system: MDA-MB-231 breast
MDA-MB-435 = system: MDA-MB-435
MDA-N = system: MDA-N
MOLT-4 leukemia = system: MOLT-4 leukemia
NCI-H226 lung = system: NCI-H226 lung
NCI-H23 lung = system: NCI-H23 lung
NCI-H522 lung = system: NCI-H522 lung
NCI/ADR-RES ovarian = system: NCI/ADR-RES ovarian
OVCAR-3 ovarian = system: OVCAR-3 ovarian
OVCAR-4 ovarian = system: OVCAR-4 ovarian
OVCAR-5 ovarian = system: OVCAR-5 ovarian
OVCAR-8 ovarian = system: OVCAR-8 ovarian
PC-3 prostate = system: PC-3 prostate
RPMI-8226 leukemia = system: RPMI-8226 leukemia
RXF 393 renal = system: RXF 393 renal
SF-268 CNS = system: SF-268 CNS
SF-295 CNS = system: SF-295 CNS
SF-539 CNS = system: SF-539 CNS
SK-MEL-2 melanoma = system: SK-MEL-2 melanoma
SK-MEL-28 melanoma = system: SK-MEL-28 melanoma
SK-MEL-5 melanoma = system: SK-MEL-5 melanoma
SK-OV-3 ovarian = system: SK-OV-3 ovarian
SN12C renal = system: SN12C renal
SNB-19 CNS = system: SNB-19 CNS
SR leukemia = system: SR leukemia
SW-620 colon = system: SW-620 colon
TK-10 renal = system: TK-10 renal
U251 CNS = system: U251 CNS
UACC-257 melanoma = system: UACC-257 melanoma

What does the source list for `CC(=O)N1C=Cc2c(c(C)c3c([nH]c4ccccc43)c2C)C1`?
TGI (786-0 renal): 6.73 µM; TGI (A498 renal): 28.3 µM; TGI (A549 NSCLC): 24.2 µM; TGI (ACHN renal): 11.3 µM; TGI (BT-549 breast): 14.6 µM; TGI (CAKI-1 renal): 25.4 µM; TGI (CCRF-CEM leukemia): > 100 µM; TGI (COLO 205 colon): 19.1 µM; TGI (DU-145 prostate): 26.6 µM; TGI (EKVX NSCLC): 8.13 µM; TGI (HCT-116 colon): 3.21 µM; TGI (HCT-15 colon): 4.99 µM; TGI (HL-60(TB) leukemia): > 100 µM; TGI (HOP-62 NSCLC): 17.5 µM; TGI (HOP-92 NSCLC): 20.8 µM; TGI (HS 578T breast): 15.9 µM; TGI (HT29 colon): 18 µM; TGI (IGROV1 ovarian): 17.9 µM; TGI (K-562 leukemia): > 100 µM; TGI (KM12 colon): 12 µM; TGI (LOX IMVI melanoma): 16.8 µM; TGI (M14 melanoma): 20.9 µM; TGI (MALME-3M melanoma): 23.1 µM; TGI (MCF7 breast): 18.5 µM; TGI (MDA-MB-231 breast): 9.34 µM; TGI (MDA-MB-435): 27.4 µM; TGI (MDA-N): 27.6 µM; TGI (MOLT-4 leukemia): > 100 µM; TGI (NCI-H226 lung): 31.9 µM; TGI (NCI-H23 lung): 20.4 µM; TGI (NCI-H522 lung): 29.7 µM; TGI (NCI/ADR-RES ovarian): 8.41 µM; TGI (OVCAR-3 ovarian): 4.55 µM; TGI (OVCAR-4 ovarian): 5.17 µM; TGI (OVCAR-5 ovarian): 24 µM; TGI (OVCAR-8 ovarian): 29.1 µM; TGI (PC-3 prostate): 19.6 µM; TGI (RPMI-8226 leukemia): 50.6 µM; TGI (RXF 393 renal): 37.4 µM; TGI (SF-268 CNS): 32.6 µM; TGI (SF-295 CNS): 23.8 µM; TGI (SF-539 CNS): 18.8 µM; TGI (SK-MEL-2 melanoma): 27.2 µM; TGI (SK-MEL-28 melanoma): 31.8 µM; TGI (SK-MEL-5 melanoma): 33.5 µM; TGI (SK-OV-3 ovarian): 27 µM; TGI (SN12C renal): 20.3 µM; TGI (SNB-19 CNS): 28.7 µM; TGI (SR leukemia): > 100 µM; TGI (SW-620 colon): 7.47 µM; TGI (TK-10 renal): 24.5 µM; TGI (U251 CNS): 19.4 µM; TGI (UACC-257 melanoma): 29.6 µM

— PubChem BioAssay (NCI)
